Measurements reported in US20120095046A1, “Amido-Isothiazole Compounds and Their Use as Inhibitors of 11Beta-HSD1 for the Treatment of Metabolic Syndrome and Related Disorders” (THE UNIVERSITY OF EDINBURGH, priority 2009, published 2012).

Columns and labels:
[1] = molecular target: T1, human 11β-HSD2 (Homo sapiens, UniProt P80365); assay: Cellular in vitro 11β-HSD2 enzyme inhibition assay (CHO cells, TLC/phosphoimager); assay type: cell-based; settings: CHO cells stably transfected with human 11β-HSD2; 22 nM tritiated cortisol, 16 hours
T1 construct: CHO cells stably transfected with the full-length gene coding for human 11β-HSD2 were used; expressed in transfected cells
T1 sequence (P80365 1-405): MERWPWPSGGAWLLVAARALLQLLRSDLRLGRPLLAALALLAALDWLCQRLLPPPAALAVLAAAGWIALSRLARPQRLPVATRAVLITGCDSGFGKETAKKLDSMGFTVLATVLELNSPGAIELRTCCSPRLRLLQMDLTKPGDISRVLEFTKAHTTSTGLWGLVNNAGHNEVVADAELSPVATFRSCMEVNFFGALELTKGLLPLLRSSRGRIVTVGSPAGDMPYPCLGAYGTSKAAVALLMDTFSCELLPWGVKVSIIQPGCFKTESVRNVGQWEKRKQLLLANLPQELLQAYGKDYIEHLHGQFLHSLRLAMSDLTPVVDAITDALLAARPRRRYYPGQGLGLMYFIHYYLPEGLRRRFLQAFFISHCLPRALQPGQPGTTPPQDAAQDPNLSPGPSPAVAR
Description: Cellular In Vitro 11β-HSD2 Enzyme Inhibition Assay
For measurement of inhibition of 11β-HSD2, CHO cells stably transfected with the full-length gene coding for human 11β-HSD2 were used. Assays were carried out in 96-well microplates containing 1×10^5 cells/well. Controls and compounds were plated as above, so that the final DMSO concentration in each well was 1%. To initiate the assay, 90 μL of a solution of HAMS F-12 medium containing 1% glutamine, 1% penicillin and streptomycin, and 22 nM tritiated cortisol was added to each well of the assay plate. The plate was then incubated in 5% CO2, 95% O2 at 37° C. for 16 hours.
The assay solutions were transferred to glass tubes and 20 μL ethyl acetate added to each tube. Each tube was vortexed thoroughly and the upper layer containing the tritiated steroid transferred to a fresh glass tube. The solvent was evaporated by placing the tubes in a heating block at 65° C. under a stream of Nitrogen gas. 20 μL ethanol was added to each of the dried samples and vortexed briefly. Each sample was applied to a silica TLC plate and the plate dried. The plate was placed vertically in a glass tank containing 92% chloroform:8% ethanol and the solvent allowed to rise up the plate. The plate was dried, placed in an imaging cassette, and overlayed with a tritium imaging plate for 1-2 days. The amount of enzyme inhibition in each sample was determined by measuring the intensity of the substrate and product spots using a phosphoimager.
IC50 values for inhibitors were determined as described for 11β-HSD1.

[2] = molecular target: T2, human 11β-HSD1 enzyme (Homo sapiens, UniProt P28845); assay: Cellular in vitro 11β-HSD1 enzyme inhibition assay (SPA, HEK293/11β-HSD1 cells); assay type: cell-based; settings: HEK293 cells stably transfected with human 11β-HSD1; 22 nM tritiated cortisone, 2 hours
T2 construct: stably transfected with a construct containing the full-length gene coding for the human 11β-HSD1 enzyme; expressed in transfected cells; HEK293/11β-HSD1)
T2 sequence (P28845 whole entry): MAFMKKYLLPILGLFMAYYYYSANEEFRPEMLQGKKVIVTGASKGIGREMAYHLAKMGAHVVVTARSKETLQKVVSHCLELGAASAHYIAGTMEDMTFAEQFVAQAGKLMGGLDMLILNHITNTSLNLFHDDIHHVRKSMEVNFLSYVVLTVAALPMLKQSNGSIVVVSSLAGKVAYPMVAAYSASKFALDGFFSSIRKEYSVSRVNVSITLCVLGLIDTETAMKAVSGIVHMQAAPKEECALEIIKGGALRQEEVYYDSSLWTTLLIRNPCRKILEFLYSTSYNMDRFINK
Description: Cellular In Vitro 11β-HSD1 Enzyme Inhibition Assay
Compounds were assessed by a Scintillation Proximity Assay (SPA) performed according to the following protocol:
HEK293 cells were stably transfected with a construct containing the full-length gene coding for the human 11β-HSD1 enzyme to create HEK293/11β-HSD1 cells. Cells were routinely cultured in DMEM containing 10% calf foetal serum, 1% glutamine, and 1% penicillin and streptomycin. Prior to assay, cells were plated at 2×10^4 cells/well in 96-well poly-D-Lys coated flat-bottomed microplates and incubated in 5% CO2, 95% O2 at 37° C. for 24 hours. The media in each well was removed immediately before assay.
Compounds to be tested were dissolved in DMSO at 10 mM and serially diluted into water containing 10% DMSO. Diluted compounds at a volume of 10 μL were added to wells of a 96-well V-bottomed microplate. A solution of DMEM, 1% glutamine, 1% penicillin and streptomycin, and 22 nM tritiated cortisone was prepared and 90 μL added to each well of the assay plate. This solution (100 μL/well) was transferred to the plate containing the cells. The plate was then incubated in 5% CO2, 95% O2 at 37° C. for 2 hours.
Following this incubation, 50 μL of the assay solution was transferred to each well of a 96-well scintillation microplate. A mixture consisting of anti-mouse YSi SPA beads, pre-mixed with anti-cortisol antibody in assay buffer (50 mM Tris.HCl, pH 7.0; 300 mM NaCl; 1 mM EDTA, 5% glycerol) was prepared and 50 μL added to each well of the scintillation microplate. An adhesive strip was applied to the microplate and the plate gently shaken for at least 2 hours at room temperature, and then spun briefly on a low speed centrifuge. The plate was read on a scintillation counter suitable for 96-well microplates. For the calculation of percentage inhibition, a series of wells were added to the plate that represented the assay maximum and the assay minimum: one set that contained substrate without cells (minimum) and another set that contained substrate and cells without any compound (maximum).
The calculation of median inhibitory concentration (IC50) values for the compounds was performed using GraphPad Prism® software. Dose-response curves for each compound were plotted as fractional inhibition and data fitted to the four parameter logistic equation.

SMILES: O=C(c1cnsc1-c1ccccc1)N1CCCC2CCCCC21 (stereo not drawn) [AA-01, (Octahydro-quinolin-1-yl)-(5-phenyl-isothiazol-4-yl)-methanone]
- IC50 [1]: > 10000 nM
- IC50 [2]: 59 nM

SMILES: O=C(c1cc(-c2ccccc2)sn1)N1CCCC2CCCCC21 (stereo not drawn) [AA-02, (Octahydro-quinolin-1-yl)-(5-phenyl-isothiazol-3-yl)-methanone]
- IC50 [1]: > 10000 nM
- IC50 [2]: ≤ 500 nM

SMILES: O=C(c1cc(-c2cn[nH]c2)sn1)N1CCC[C@@H]2CCCC[C@@H]21 [BB-01, (4aS,8aS)-Octahydro-quinolin-1-yl-[5-(1H-pyrazol-4-yl)-isothiazol-3-yl]-methanone]
- IC50 [1]: > 10000 nM
- IC50 [2]: 18 nM

SMILES: O=C(c1cc(-c2cn[nH]c2)sn1)N1CCCC1c1ccc(F)cc1 (stereo not drawn) [BB-02, [2-(4-Fluoro-phenyl)-pyrrolidin-1-yl]-[5-(1H-pyrazol-4-yl)-isothiazol-3-yl]-methanone]
- IC50 [1]: > 10000 nM
- IC50 [2]: ≤ 500 nM

SMILES: O=C1c2ccccc2C(=O)N1c1cc(C(=O)N2CCC[C@@H]3CCCC[C@@H]32)ns1 [BB-03, 2-[3-((4aS,8aS)-Octahydro-quinoline-1-carbonyl)-isothiazol-5-yl]-isoindole-1,3-dione]
- IC50 [1]: > 10000 nM
- IC50 [2]: ≤ 500 nM

SMILES: O=C(c1cc(C2CCOCC2)sn1)N1CCC[C@@H]2CCCC[C@@H]21 [CC-01, (4aS,8aS)-Octahydro-quinolin-1-yl-[5-(tetrahydro-pyran-4-yl)-isothiazol-3-yl]-methanone]
- IC50 [1]: > 10000 nM
- IC50 [2]: 62 nM
